Source: patent US9242981B2, “Fused pyrazole derivatives as novel ERK inhibitors” (Merck Sharp & Dohme Corp., priority 2010, dated 2016)

The molecules below were run against Mouse ERK2 protein (Mus musculus (Mouse), UniProt P63085) (assay: Coupled MEK1/ERK2 IMAP assay or Active ERK2 IMAP assay). Details: Table 1, class symbols, 30 μM ATP.
Assay type: biochemical
Procedure: 14 μl of kinase buffer (10 mM Tris.HCl pH 7.2, 10 mM MgCl2, 0.01% Tween-20, 1 mM DTT) containing 0.4 ng unphosphorylated Mouse ERK2 protein is added to each well of a black 384-well assay plate. […] DMSO concentration during initial incubation is 6.7%. […] DMSO concentration during ERK activation was 4%. After one hour, reactions are terminated by addition of 60 μl IMAP detections beads in binding buffer (Molecular Devices). Binding is allowed to equilibrate for 30 minutes before reading the plate on an LJL Analyst Fluorescence Polarization plate reader.
Activated ERK2 activity was also determined in the IMAP assay format using the procedure outlined above. […] Reactions proceeded for 30 minutes before termination by addition of […] IMAP detection beads in binding buffer. Plates were read as above after 30 minute binding equilibration.

Mouse ERK2 protein, sequence (P63085 whole entry): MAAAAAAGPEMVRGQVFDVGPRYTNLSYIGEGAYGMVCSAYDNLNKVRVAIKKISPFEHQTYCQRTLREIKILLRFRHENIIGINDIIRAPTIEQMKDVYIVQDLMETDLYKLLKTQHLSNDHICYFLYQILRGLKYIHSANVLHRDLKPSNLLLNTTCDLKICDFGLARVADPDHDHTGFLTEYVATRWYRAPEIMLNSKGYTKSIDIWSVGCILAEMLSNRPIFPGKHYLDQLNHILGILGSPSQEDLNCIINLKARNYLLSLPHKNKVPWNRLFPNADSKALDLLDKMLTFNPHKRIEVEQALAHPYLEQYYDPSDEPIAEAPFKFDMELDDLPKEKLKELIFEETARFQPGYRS

| IC50 [nM] | SMILES |
| --- | --- |
| 101 to 1000 | O=C(NC1CN(Cc2c(F)cccc2F)CCC1F)N1CCc2[nH]nc(-c3ccc4nccn4c3)c2C1 (mixture of isomers) [Compound 156, N-[cis/trans-1-[(2,6-difluorophenyl)methyl]-4-fluoro-3-piperidinyl]-1,4,6,7-tetrahydro-3-imidazo[1,2-a]pyridin-6-yl-5H-pyrazolo[4,3-c]pyridine-5-carboxamide] |
| 101 to 1000 | Cc1cc(-c2n[nH]c3c2CN(C(=O)NC2CN(Cc4c(F)cccc4F)CCC2F)CC3)ccn1 (mixture of isomers) [Compound 158, N-[cis/trans-1-[(2,6-difluorophenyl)methyl]-4-fluoro-3-piperidinyl]-1,4,6,7-tetrahydro-3-(2-methyl-4-pyridinyl)-5H-pyrazolo[4,3-c]pyridine-5-carboxamide] |
| 101 to 1000 | CC1(C(=O)N[C@H]2CNC[C@@H]2c2ccccc2)CCc2[nH]nc(-c3ccncc3)c2C1 (mixture of isomers) [Compound 4, 4,5,6,7-tetrahydro-5-methyl-N-(trans-4-phenyl-3-pyrrolidinyl)-3-(4-pyridinyl)-1H-indazole-5-carboxamide (mixture of isomers)] |
| 101 to 1000 | O=C(N[C@H]1CNC[C@@H]1c1ccccc1)[C@@H]1CCc2[nH]nc(-c3ccncc3)c2C1 (racemic) [Compound 12, 4,5,6,7-tetrahydro-N-(trans-4-phenyl-3-pyrrolidinyl)-3-(4-pyridinyl)-1H-indazole-5(R)-carboxamide] |
| 21 to 100 | O=C(N[C@H]1CNC[C@@H]1c1ccccc1)[C@H]1CCc2[nH]nc(-c3ccncc3)c2C1 (racemic) [Compound 13, 4,5,6,7-tetrahydro-N-(trans-4-phenyl-3-pyrrolidinyl)-3-(4-pyridinyl)-1H-indazole-5(S)-carboxamide] |
| 1000 to 100000 | O=C(N[C@H]1CNC[C@@H]1c1ccccc1)C1CCc2[nH]nc(-c3ccc4ncsc4c3)c2C1 (mixture of isomers) [Compound 43, 3-(6-benzothiazolyl)-4,5,6,7-tetrahydro-N-(trans-4-phenyl-3-pyrrolidinyl)-1H-indazole-5-carboxamide] |
| 1000 to 100000 | O=C(N[C@H]1CNC[C@@H]1c1ccccc1)[C@H]1CCc2[nH]nc(-c3ccc4ncsc4c3)c2C1 (racemic) [Compound 44, 3-(6-benzothiazolyl)-4,5,6,7-tetrahydro-N-(trans-4-phenyl-3-pyrrolidinyl)-1H-indazole-5(S)-carboxamide] |
| < 20 | Cc1ccccc1[C@@H]1CN(C)C[C@H]1NC(=O)N1CCc2[nH]nc(-c3ccc(F)cc3)c2C1 (racemic) [Compound 141, 3-(4-fluorophenyl)-1,4,6,7-tetrahydro-N-[trans-1-methyl-4-(2-methylphenyl)-3-pyrrolidinyl]-5H-pyrazolo[4,3-c]pyridine-5-carboxamide] |
| < 20 | O=C(N[C@@H]1CCC[C@H]1c1ccccc1)N1CCc2[nH]nc(-c3ccncc3)c2C1 (racemic) [Compound 143, 1,4,6,7-tetrahydro-N-[trans-2-phenylcyclopentyl]-3-(4-pyridinyl)-5H-pyrazolo[4,3-c]pyridine-5-carboxamide] |
| < 20 | CN1C[C@@H](NC(=O)N2CCc3[nH]nc(-c4ccncc4)c3C2)[C@H](c2ccccc2C(F)(F)F)C1 (racemic) [Compound 149, 1,4,6,7-tetrahydro-N-[trans-1-methyl-4-[2-(trifluoromethyl)phenyl]-3-pyrrolidinyl]-3-(4-pyridinyl)-5H-pyrazolo[4,3-c]pyridine-5-carboxamide] |
| < 20 | CN1C[C@@H](NC(=O)N2CCc3[nH]nc(-c4ccc(F)cc4)c3C2)[C@H](c2ccccc2C(F)(F)F)C1 (racemic) [Compound 151, 3-(4-fluorophenyl)-1,4,6,7-tetrahydro-N-[trans-1-methyl-4-[2-(trifluoromethyl)phenyl]-3-pyrrolidinyl]-5H-pyrazolo[4,3-c]pyridine-5-carboxamide] |
| < 20 | CN1C[C@@H](NC(=O)N2CCc3[nH]nc(-c4ccc5c(c4)CCO5)c3C2)[C@H](c2ccccc2C(F)(F)F)C1 (racemic) [Compound 153, 3-(2,3-dihydro-5-benzofuranyl)-1,4,6,7-tetrahydro-N-[trans-1-methyl-4-[2-(trifluoromethyl)phenyl]-3-pyrrolidinyl]-5H-pyrazolo[4,3-c]pyridine-5-carboxamide] |
| < 20 | CCn1cc(-c2n[nH]c3c2CN(C(=O)N[C@@H]2CN(C)C[C@H]2c2ccccc2C(F)(F)F)CC3)cn1 (racemic) [Compound 155, 3-(1-ethyl-1H-pyrazol-4-yl)-1,4,6,7-tetrahydro-N-[trans1-methyl-4-[2-(trifluoromethyl)phenyl]-3-pyrrolidinyl]-5H-pyrazolo[4,3-c]pyridine-5-carboxamide] |
| < 20 | Cc1ccc([C@@H]2CNC[C@H]2NC(=O)N2CCc3[nH]nc(-c4ccncc4)c3C2)cc1 (racemic) [Compound 157, 1,4,6,7-tetrahydro-N-[trans-4-(4-methylphenyl)-3-pyrrolidinyl]-3-(4-pyridinyl)-5H-pyrazolo[4,3-c]pyridine-5-carboxamide] |
| < 20 | Cc1ccc(C2CN(C)CC2NC(=O)N2CCc3[nH]nc(-c4ccncc4)c3C2)cc1 (racemic) [Compound 159, 1,4,6,7-tetrahydro-N-[trans-1 methyl-4-(4-methylphenyl)-3-pyrrrolidinyl]-3-(4-pyridinyl)-5H-pyrazolo[4,3-c]pyridine-5-carboxamide] |
| < 20 | CCN1C[C@@H](NC(=O)N2CCc3[nH]nc(-c4ccncc4)c3C2)[C@H](c2ccc(C)cc2)C1 (racemic) [Compound 161, N-[trans-1-ethyl-4-(4-methylphenyl)-3-pyrrolidinyl]-1,4,6,7-tetrahydro-3-(4-pyridinyl)-5H-pyrazolo[4,3-c]pyridine-5-carboxamide] |
| < 20 | CN1C[C@@H](NC(=O)N2CCc3[nH]nc(-c4ccncc4)c3C2)[C@H](c2ccccc2-c2ccccc2)C1 (racemic) [Compound 163, N-[trans-4-[1,1′-biphenyl]-2-yl-1-methyl-3-pyrrolidinyl]-1,4,6,7-tetrahydro-3-(4-pyridinyl)-5H-pyrazolo[4,3-C]pyridine-5-carboxamide] |
| 101 to 1000 | CC(C)(C)OC(=O)N1C[C@@H](NC(=O)N2CCc3[nH]nc(-c4ccncc4)c3C2)[C@H](c2cccc(-c3ccccc3)c2)C1 (racemic) [Compound 165, 1,1-dimethylethyl trans-3-[1,1′-biphenyl]-3-yl-4-[[[1,4,6,7-tetrahydro-3-(4-pyridinyl)-5H-pyrazolo[4,3-c]pyridin-5-yl]carbonyl]amino]-1-pyrrolidinecarboxylate] |
| < 20 | O=C(N[C@@H]1CNC[C@H]1c1cccc(-c2ccccc2)c1)N1CCc2[nH]nc(-c3ccncc3)c2C1 (racemic) [Compound 167, N-[trans-4-[1,1′-biphenyl]-3-yl-3-pyrrolidinyl]-1,4,6,7-tetrahydro-3-(4-pyridinyl)-5H-pyrazolo[4,3-c]pyridine-5-carboxamide] |
| < 20 | CN1C[C@@H](NC(=O)N2CCc3[nH]nc(-c4ccncc4)c3C2)[C@H](c2cccc(-c3ccccc3)c2)C1 (racemic) [Compound 169, N-[trans-4-[1,1′-biphenyl]-3-yl-1-methyl-3-pyrrolidinyl]-1,4,6,7-tetrahydro-3-(4-pyridinyl)-5H-pyrazolo[4,3-c]pyridine-5-carboxamide] |
| 101 to 1000 | O=C(N[C@@H]1CCCNC1)N1CCc2[nH]nc(-c3ccncc3)c2C1 (single isomer, unassigned) [Compound 171] |
| < 20 | O=C(N[C@@H]1CCCN(Cc2ccccc2)C1)N1CCc2[nH]nc(-c3ccncc3)c2C1 (single isomer, unassigned) [Compound 175] |
| 101 to 1000 | O=C(NC1CC[C@H]2CC[C@@H]1N2Cc1c(F)cccc1F)N1CCc2[nH]nc(-c3ccc4nccn4c3)c2C1 (stereo in doubt) [Compound 182, N-[8-[(2,6-difluorophenyl)methyl]-8-azabicyclo[3.2.1]oct-2-yl]-1,4,6,7-tetrahydro-3-imidazo[1,2-a]pyridin-6-yl-5H-pyrazolo[4,3-c]pyridine-5-carboxamide] |
| 1000 to 100000 | CCn1cc(Cl)c(NC(=O)C2CCc3[nH]nc(-c4ccncc4)c3C2)n1 (stereo not shown) [Compound 2, N-(4-chloro-1-ethyl-1H-pyrazol-3-yl)-4,5,6,7-tetrahydro-3-(4-pyridinyl)-1H-indazole-5-carboxamide] |
| 1000 to 100000 | COc1cccc(CC(=O)N2CCc3[nH]nc(-c4ccncc4)c3C2)c1 [Compound 3, 4,5,6,7-tetrahydro-5-[(3-methoxyphenyl)acetyl]-3-(4-pyridinyl)-1H-pyrazolo[4,3-c]pyridine] |

Same assay, conditions: Table 2, 30 μM ATP

| IC50 [nM] | SMILES |
| --- | --- |
| 1.16 | O=C(N[C@H]1CNC[C@@H]1c1ccccc1)N1CCc2[nH]nc(-c3ccncc3)c2C1 (racemic) [Compound 37, 1,4,6,7-tetrahydro-N-(trans-4-phenyl-3-pyrrolidinyl)-3-(4-pyridinyl)-5H-pyrazolo[4,3-c]pyridine-5-carboxamide] |
| 1.52 | Cc1ccccc1[C@@H]1CN(C)C[C@H]1NC(=O)N1CCc2[nH]nc(-c3ccc4c(c3)CCO4)c2C1 (racemic) [Compound 145, 3-(2,3-dihydro-5-benzofuranyl)-1,4,6,7-tetrahydro-N-[trans-1-methyl-4-(2-methylphenyl)-3-pyrrolidinyl]-5H-pyrazolo[4,3-c]pyridine-5-carboxamide] |
| 1.9 | CCn1cc(-c2n[nH]c3c2CN(C(=O)NC2CN(C)CC2c2ccccc2C)CC3)cn1 (racemic) [Compound 147, 3-(1-ethyl-1H-pyrazoI-4-yl)-1,4,6,7-tetrahydro-N-ttrans-1-methyl-4-(2-methylphenyl)-3-pyrrolidinyl]-5H-pyrazolo[4,3-c]pyridine-5-carboxamide] |
